pIC50, pKi: −log10 of the molar value.
Tests used:
[1] = target: 5-hydroxytryptamine receptor 2A (Rattus norvegicus, UniProt P14842); test: The binding affinity at 5-hydroxytryptamine 2A receptor was determined using [3H]ketanserin
[2] = target: T1, Serotonin 3 (5-HT3) receptor (Rattus norvegicus, UniProt P35563+Q9JJ16); test: The binding affinity at 5-hydroxytryptamine 3 receptor was determined using [3H]LY-278584; type: protein-complex assay
T1 sequence (P35563 whole entry): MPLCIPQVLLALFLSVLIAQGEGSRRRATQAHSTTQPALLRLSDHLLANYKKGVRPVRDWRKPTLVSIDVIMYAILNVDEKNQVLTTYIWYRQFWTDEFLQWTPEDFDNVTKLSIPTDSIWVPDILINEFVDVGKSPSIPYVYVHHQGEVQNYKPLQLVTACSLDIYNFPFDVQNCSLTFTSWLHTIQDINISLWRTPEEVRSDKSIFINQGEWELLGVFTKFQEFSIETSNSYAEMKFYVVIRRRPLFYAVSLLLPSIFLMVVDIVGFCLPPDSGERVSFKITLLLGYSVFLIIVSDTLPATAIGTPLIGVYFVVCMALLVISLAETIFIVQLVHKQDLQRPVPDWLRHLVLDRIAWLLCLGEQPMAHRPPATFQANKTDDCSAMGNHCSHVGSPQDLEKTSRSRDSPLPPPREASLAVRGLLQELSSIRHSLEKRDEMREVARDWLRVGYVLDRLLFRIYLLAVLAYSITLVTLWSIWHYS
T1 sequence (Q9JJ16 whole entry): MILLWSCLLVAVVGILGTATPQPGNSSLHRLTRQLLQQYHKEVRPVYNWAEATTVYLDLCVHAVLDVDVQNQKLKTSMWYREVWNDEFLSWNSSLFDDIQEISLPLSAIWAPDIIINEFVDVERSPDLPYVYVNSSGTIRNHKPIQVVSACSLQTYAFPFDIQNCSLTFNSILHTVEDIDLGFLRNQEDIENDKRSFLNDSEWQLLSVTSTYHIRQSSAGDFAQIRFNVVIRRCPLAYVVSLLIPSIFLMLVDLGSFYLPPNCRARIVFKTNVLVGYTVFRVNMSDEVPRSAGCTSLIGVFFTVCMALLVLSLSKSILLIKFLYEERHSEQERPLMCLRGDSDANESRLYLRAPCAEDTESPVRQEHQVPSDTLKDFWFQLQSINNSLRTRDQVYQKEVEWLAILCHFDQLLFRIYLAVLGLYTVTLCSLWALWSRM

[3] = target: T2, Adrenergic receptor alpha-1 (Rattus norvegicus, UniProt P15823+P23944+P43140); test: The binding affinity at Alpha-1 adrenergic receptor determined using [3H]prazosin; type: protein assay
T2 sequence (P15823 whole entry): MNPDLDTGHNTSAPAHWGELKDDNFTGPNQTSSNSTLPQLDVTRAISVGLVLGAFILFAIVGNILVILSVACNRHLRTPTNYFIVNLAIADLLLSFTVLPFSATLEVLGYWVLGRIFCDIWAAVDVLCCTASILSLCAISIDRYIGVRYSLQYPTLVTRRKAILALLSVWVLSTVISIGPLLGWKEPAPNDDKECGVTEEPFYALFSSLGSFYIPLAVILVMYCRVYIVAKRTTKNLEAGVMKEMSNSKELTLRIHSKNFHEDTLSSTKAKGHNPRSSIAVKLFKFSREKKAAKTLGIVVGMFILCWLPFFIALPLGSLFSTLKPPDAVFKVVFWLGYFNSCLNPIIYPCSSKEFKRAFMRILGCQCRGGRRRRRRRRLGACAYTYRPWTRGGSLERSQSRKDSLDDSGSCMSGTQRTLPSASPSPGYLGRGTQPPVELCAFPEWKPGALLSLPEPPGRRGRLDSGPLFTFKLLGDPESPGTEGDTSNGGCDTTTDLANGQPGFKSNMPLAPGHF
T2 sequence (P23944 whole entry): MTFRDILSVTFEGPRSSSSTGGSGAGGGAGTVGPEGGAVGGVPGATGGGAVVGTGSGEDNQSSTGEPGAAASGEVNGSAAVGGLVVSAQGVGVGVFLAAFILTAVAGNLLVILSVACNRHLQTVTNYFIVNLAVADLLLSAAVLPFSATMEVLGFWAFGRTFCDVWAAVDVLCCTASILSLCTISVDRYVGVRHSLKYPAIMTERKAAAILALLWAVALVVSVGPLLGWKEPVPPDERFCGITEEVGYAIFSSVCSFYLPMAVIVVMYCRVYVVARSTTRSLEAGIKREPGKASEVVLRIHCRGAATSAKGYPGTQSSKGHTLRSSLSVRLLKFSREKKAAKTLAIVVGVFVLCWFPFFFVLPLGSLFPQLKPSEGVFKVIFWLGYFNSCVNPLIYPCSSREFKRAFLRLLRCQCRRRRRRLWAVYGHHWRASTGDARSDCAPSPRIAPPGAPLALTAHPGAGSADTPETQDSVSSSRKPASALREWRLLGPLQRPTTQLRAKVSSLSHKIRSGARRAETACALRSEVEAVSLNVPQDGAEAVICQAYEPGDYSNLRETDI
T2 sequence (P43140 whole entry): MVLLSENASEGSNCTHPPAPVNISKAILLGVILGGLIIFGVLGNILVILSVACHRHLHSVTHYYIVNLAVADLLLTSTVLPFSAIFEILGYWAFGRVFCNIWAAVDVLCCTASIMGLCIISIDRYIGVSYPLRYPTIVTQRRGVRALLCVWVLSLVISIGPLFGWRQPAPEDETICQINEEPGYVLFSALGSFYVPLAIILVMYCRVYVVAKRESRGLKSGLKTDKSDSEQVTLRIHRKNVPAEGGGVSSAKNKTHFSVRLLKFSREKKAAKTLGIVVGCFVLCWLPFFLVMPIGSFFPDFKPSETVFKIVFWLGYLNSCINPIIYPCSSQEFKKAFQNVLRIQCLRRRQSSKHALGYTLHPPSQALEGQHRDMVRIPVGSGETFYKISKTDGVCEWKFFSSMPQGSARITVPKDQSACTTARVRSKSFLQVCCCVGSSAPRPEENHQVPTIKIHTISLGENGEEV

[4] = target: Norepinephrine transporter (Rattus norvegicus, UniProt Q9WTR4); test: The binding affinity at the Norepinephrine transporter reuptake sites determined using competition binding assay
[5] = target: Sodium-dependent serotonin transporter (Rattus norvegicus, UniProt P31652); test: The binding affinity at the 5-HT reuptake sites determined using competition binding assay
D(3) dopamine receptor = D(3) dopamine receptor (Homo sapiens, UniProt P35462); test: The binding affinity at the Dopamine receptor D3 determined using [3H]spiperone
Sequence of D(3) dopamine receptor (P35462 whole entry): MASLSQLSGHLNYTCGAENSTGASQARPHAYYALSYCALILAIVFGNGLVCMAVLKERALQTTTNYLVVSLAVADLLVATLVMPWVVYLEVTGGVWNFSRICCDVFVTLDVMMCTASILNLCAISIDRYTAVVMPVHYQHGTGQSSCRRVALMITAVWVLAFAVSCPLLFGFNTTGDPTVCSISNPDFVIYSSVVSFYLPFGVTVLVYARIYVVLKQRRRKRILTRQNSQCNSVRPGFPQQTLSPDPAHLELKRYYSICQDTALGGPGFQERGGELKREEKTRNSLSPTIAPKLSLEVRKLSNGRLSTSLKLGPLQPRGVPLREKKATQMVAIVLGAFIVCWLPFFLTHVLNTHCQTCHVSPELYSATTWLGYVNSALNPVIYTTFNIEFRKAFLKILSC

Sequence of Norepinephrine transporter (Q9WTR4 whole entry): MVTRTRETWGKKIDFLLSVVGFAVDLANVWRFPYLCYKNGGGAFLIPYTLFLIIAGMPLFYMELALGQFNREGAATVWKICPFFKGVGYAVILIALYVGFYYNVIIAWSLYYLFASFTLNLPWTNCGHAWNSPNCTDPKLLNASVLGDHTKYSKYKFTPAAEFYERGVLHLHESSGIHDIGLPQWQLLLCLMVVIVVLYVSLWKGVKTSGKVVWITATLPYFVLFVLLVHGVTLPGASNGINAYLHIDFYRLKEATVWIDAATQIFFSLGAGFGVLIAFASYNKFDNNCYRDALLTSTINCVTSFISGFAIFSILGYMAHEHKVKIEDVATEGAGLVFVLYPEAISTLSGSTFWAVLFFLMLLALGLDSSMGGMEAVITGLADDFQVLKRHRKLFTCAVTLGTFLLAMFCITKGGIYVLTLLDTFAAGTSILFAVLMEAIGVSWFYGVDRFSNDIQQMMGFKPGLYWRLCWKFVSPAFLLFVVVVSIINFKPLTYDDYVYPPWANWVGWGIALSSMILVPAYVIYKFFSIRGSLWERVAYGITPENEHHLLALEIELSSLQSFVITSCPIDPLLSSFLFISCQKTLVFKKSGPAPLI
Sequence of Sodium-dependent serotonin transporter (P31652 whole entry): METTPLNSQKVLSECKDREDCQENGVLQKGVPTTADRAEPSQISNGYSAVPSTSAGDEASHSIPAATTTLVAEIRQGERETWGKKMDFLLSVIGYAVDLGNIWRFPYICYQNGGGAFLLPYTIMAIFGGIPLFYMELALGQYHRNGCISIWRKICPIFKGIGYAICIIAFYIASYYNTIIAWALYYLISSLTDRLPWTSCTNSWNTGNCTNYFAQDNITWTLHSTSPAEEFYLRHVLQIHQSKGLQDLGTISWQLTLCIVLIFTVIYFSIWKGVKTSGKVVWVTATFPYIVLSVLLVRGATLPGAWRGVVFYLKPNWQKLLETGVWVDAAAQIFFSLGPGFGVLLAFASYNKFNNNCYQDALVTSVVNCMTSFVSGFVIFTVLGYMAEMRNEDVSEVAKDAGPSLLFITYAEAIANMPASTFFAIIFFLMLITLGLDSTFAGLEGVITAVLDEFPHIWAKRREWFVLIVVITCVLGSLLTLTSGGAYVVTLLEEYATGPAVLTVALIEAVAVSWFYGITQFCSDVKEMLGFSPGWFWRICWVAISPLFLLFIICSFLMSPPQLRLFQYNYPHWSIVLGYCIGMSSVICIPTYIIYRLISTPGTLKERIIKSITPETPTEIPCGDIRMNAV
Sequence of 5-hydroxytryptamine receptor 2A (P14842 whole entry): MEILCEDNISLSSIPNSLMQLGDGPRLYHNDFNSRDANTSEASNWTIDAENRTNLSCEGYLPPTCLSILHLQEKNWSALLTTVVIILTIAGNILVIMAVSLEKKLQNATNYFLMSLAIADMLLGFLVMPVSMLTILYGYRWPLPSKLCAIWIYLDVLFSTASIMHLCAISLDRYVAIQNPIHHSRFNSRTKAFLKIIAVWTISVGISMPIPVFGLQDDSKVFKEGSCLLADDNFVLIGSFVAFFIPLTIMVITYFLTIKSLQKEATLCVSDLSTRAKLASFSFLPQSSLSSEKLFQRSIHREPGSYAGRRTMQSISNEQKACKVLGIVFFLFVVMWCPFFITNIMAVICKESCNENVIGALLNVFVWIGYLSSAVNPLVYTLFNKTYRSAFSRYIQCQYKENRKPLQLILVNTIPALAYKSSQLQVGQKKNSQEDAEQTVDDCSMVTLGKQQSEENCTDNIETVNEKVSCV

| SMILES | pIC50 [1] | pKi [2] | Ki [3] [nM] | pIC50 [4] | pIC50 [5] | pKi (D(3) dopamine receptor) |
| --- | --- | --- | --- | --- | --- | --- |
| COc1cccc2c1N1CCN(C)C[C@@H]1c1ccccc1C2 | 9.26 | < 5.30 | 205 | 5.91 | 5.78 | 5.45 |
| COc1cccc2c1N1CCN(C)C[C@H]1c1ccccc1C2 | 9.12 | 5.78 | 74 | 5.54 | < 5.00 | 7.00 |
| COc1cccc2c1N1CCN(C)CC1c1ccccc1C2 (racemic) | 9.15 | 5.54 | 84 | 5.75 | 5.54 | 6.59 |

From ChEMBL document CHEMBL1135518 (J Med Chem, 2002)
